Test results reported in the NIST ThermoML archive (doi:10.1021/acs.jced.8b01135).
Numbers after ± are expanded uncertainties.

Test: xn = mol fraction of the nth substance listed
Conditions: 102 kPa, Liquid, x2 = 0; for speed of sound: Frequency=3 MHz, Single path-length method; for mass density: Vibrating tube method; for viscosity: Concentric cylinders viscometry

speed of sound (288.15 K)	mass density (288.15 K)	viscosity (293.15 K)	speed of sound (293.15 K)	mass density (293.15 K)	speed of sound (298.15 K)	mass density (298.15 K)	viscosity (303.15 K)	speed of sound (303.15 K)	mass density (303.15 K)	viscosity (313.15 K)	speed of sound (313.15 K)	mass density (313.15 K)	viscosity (323.15 K)	speed of sound (323.15 K)	mass density (323.15 K)	viscosity (333.15 K)	speed of sound (333.15 K)	mass density (333.15 K)	Structure (SMILES)
1317.2 ± 0.8 m/s	752.35 ± 0.71 kg/m3	1.49 ± 0.02 mPa·s	1297.7 ± 0.8 m/s	748.72 ± 0.71 kg/m3	1278.2 ± 0.8 m/s	745.09 ± 0.71 kg/m3	1.27 ± 0.02 mPa·s	1259 ± 0.8 m/s	741.46 ± 0.71 kg/m3	1.08 ± 0.02 mPa·s	1221.1 ± 0.8 m/s	734.19 ± 0.71 kg/m3	0.934 ± 0.021 mPa·s	1184 ± 0.8 m/s	726.88 ± 0.71 kg/m3	0.813 ± 0.021 mPa·s	1147.8 ± 0.8 m/s	719.53 ± 0.71 kg/m3	CCCCCCCCCCCC [dodecane] + CCCC1CCCCC1
1317.2 ± 0.8 m/s	752.35 ± 0.71 kg/m3	1.49 ± 0.02 mPa·s	1297.7 ± 0.8 m/s	748.72 ± 0.71 kg/m3	1278.2 ± 0.8 m/s	745.09 ± 0.71 kg/m3	1.27 ± 0.02 mPa·s	1259 ± 0.8 m/s	741.46 ± 0.71 kg/m3	1.08 ± 0.02 mPa·s	1221.1 ± 0.8 m/s	734.19 ± 0.71 kg/m3	0.934 ± 0.021 mPa·s	1184 ± 0.8 m/s	726.88 ± 0.71 kg/m3	0.813 ± 0.021 mPa·s	1147.8 ± 0.8 m/s	719.53 ± 0.71 kg/m3	CCCCCCCCCCCC [dodecane] + CCCCCC1CCCCC1
1317.2 ± 0.8 m/s	752.35 ± 0.71 kg/m3	1.49 ± 0.02 mPa·s	1297.7 ± 0.8 m/s	748.72 ± 0.71 kg/m3	1278.2 ± 0.8 m/s	745.09 ± 0.71 kg/m3	1.27 ± 0.02 mPa·s	1259 ± 0.8 m/s	741.46 ± 0.71 kg/m3	1.08 ± 0.02 mPa·s	1221.1 ± 0.8 m/s	734.19 ± 0.71 kg/m3	0.934 ± 0.021 mPa·s	1184 ± 0.8 m/s	726.88 ± 0.71 kg/m3	0.813 ± 0.021 mPa·s	1147.8 ± 0.8 m/s	719.53 ± 0.71 kg/m3	CCCCCCCCCCCC [dodecane] + CCCCCCC1CCCCC1
1317.2 ± 0.8 m/s	752.35 ± 0.71 kg/m3	1.49 ± 0.02 mPa·s	1297.7 ± 0.8 m/s	748.72 ± 0.71 kg/m3	1278.2 ± 0.8 m/s	745.09 ± 0.71 kg/m3	1.27 ± 0.02 mPa·s	1259 ± 0.8 m/s	741.46 ± 0.71 kg/m3	1.08 ± 0.02 mPa·s	1221.1 ± 0.8 m/s	734.19 ± 0.71 kg/m3	0.934 ± 0.021 mPa·s	1184 ± 0.8 m/s	726.88 ± 0.71 kg/m3	0.813 ± 0.021 mPa·s	1147.8 ± 0.8 m/s	719.53 ± 0.71 kg/m3	CCCCCCCCCCCC [dodecane] + CCCCCCCC1CCCCC1
